Experimental findings from US7906510B2, “Amide derivative and pharmaceutical composition containing the same” (Dainippon Sumito Pharma Co., Ltd., priority 2008, dated 2011) are described below.

Usually melting point stands for the temperature, or range, at which the solid turns liquid. What is called IC50 is the midpoint of a concentration-inhibition curve.

The structures appear in SMILES notation. Counter-ions that a name gives are not always drawn.

One series concerns Male Slc-ddy mice. Briefly: Mouse defecation assay. On the set-up: key: −: No Effect; +: Moderately Improved (p<0.05); ++: Significantly Improved (p<0.01). The settings on record: 3 mg/kg orally; stool weight 30, 60 and 120 minutes after administration; Dunnett assay vs control. The class given is in vivo. Here is the method: Male Slc-ddy mice (body weight 25 to 30 g) were used and allowed to ingest food and water ad libitum until commencement of experiments.
A group of 25 mice was divided into 5 groups, which 5 mice each per group were respectively transferred to fasting cages to adjust to new environments for about 1 hour. Then, each mouse was orally administered 3 mg/kg suspension of a test compound in 0.5% tragacanth solution to measure each stool weight of each group 30, 60, and 120 minutes after oral administration.
Efficacies were evaluated by Dunnett assay between test compounds and control.

For series [1], the system named is Male Slc-Hartley guinea pigs. The series is described as follows: Electrocardiographic assay for guinea pig. The settings on record: dose extending 5% of QTc; i.v. infusion for 15 minutes, anesthetized guinea pigs, ECG lead II.
Experimental: Male Slc-Hartley guinea pigs were anesthetized to determine electrocardiogram (lead II) under artificial respiration. A drug solution was continuously and intravenously infused via cannula indwelled in cervical veins at a flow rate: 0.2 ml/kg/min for 15 minutes.
For another series, the target named is T1, 5-HT4 receptor (Cavia porcellus, UniProt O70528).
T1 construct: the mixture was suspended to give receptor membrane preparations; from tissue; host or cells: guinea pig (Slc-Hartley) brain striatum membranes
Briefly: Serotonin 4 (5-HT4) receptor binding assay. The settings on record: inhibition of specific binding of 0.1 nM [3H]-GR113808; guinea pig striatum membrane preparations; 37° C., 30 minutes; read-out: IC50. On the set-up: species or system guinea pig. As to the method: 5-HT4 receptor binding assay and preparations of receptor membrane preparations were carried out according to a method of Grossman et al. [see British J. Pharmacol., (1993) 109, 618].
Slc-Hartley guinea pigs (body weight 300 to 400 g) were decapitated to remove brain rapidly, and striatum was isolated. To the obtained tissues were added fifteenfold of Hepes buffer (50 mM, pH7.4, 4° C.), and the mixture was homogenized by Teflon® homogenizer and centrifuged at 48,000×g (4° C.) for 15 minutes. To the resulting precipitate was added Hepes buffer (1 ml) to 30 mg by wet weight of tissues, and the mixture was suspended to give receptor membrane preparations.
0.1 nM [^3H]-GR113808 {chemical name: [1-[2-(methylsulfonylamino)ethyl]-4-piperidinyl]methyl 1-methylindole-3-carboxylate}, receptor membrane preparations, and Hepes buffer (50 mM, pH7.4, 4° C., 1 ml) containing test compounds or 30 μM serotonin were placed in an assay tube, and incubated at 37° C. for 30 minutes. On quenching the reaction, the mixture was rapidly filtered on whatman GF/B filter, which was presoaked in 0.1% polyethyleneimine for 1 hour, by using Brandel cell Harvester, and washed with ice-cooled 50 mM Tris-HCl (pH7.7, 4 ml) three times. To the filter after filtration was added ACS II scintillator, and then a radioactivity was determined by a liquid scintillation counter.
50% inhibition concentrations (IC50) were determined from inhibition rates of test compounds to specific bindings which were obtained by subtracting nonspecific bindings from total binding amounts of [^3H]-GR113808.

T1 sequence (O70528 whole entry): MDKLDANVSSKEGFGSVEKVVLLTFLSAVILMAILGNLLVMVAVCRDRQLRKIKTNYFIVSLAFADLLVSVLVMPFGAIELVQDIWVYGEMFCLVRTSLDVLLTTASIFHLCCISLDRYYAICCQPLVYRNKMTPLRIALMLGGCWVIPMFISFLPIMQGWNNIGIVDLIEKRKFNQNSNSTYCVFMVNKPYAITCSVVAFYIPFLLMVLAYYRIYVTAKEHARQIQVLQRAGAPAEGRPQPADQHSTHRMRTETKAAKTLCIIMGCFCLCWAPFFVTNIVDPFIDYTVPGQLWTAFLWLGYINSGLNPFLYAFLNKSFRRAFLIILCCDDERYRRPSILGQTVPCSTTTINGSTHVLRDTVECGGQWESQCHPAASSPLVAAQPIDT

`CCOc1cc(N)c(Cl)cc1C(=O)NCC1CN(CC2CCN(C(=O)OC(C)(C)C)CC2)CCO1` (stereo not shown) (as salt: fumarate) [Example 4, 4-amino-N-[{4-[(1-(tert-butoxycarbonyl)-4-piperidinyl)methyl]-2-morpholinyl}-methyl]-5-chloro-2-ethoxybenzamide 1.5 fumarate] had a melting point of 167 to 169 °C.
For the compound `COc1cc(N)c(Cl)cc1C(=O)N[C@H]1CCN(CCCOc2ccc(F)cc2)C[C@H]1OC` (relative stereo) [Cisapride, cis-4-amino-5-chloro-N-[1-[3-(4-fluorophenoxy)propyl]-3-methoxy-4-piperidinyl]-2-methoxybenzamide, reference compound], the Effect result with Male Slc-ddy mice was “−”. Besides, the “ED5% (mg/kg,i.v.)” value in series [1] is given as 0.3 mg/kg.
The like results for `COc1cc(N)c(Cl)cc1C(=O)NC[C@H]1CN(CC2CCN(S(=O)(=O)N(C)C)CC2)CCO1.O=C(O)/C=C/C(=O)O` [Example 80] were, in that order, “+” and more than 30 mg/kg.
Consider `COC(=O)N1CCC(CN2CCO[C@@H](CNC(=O)c3cc(Cl)c(N)cc3OC)C2)CC1` [Example 92], for which, in the series with Male Slc-ddy mice, the Effect result is reported as “+”. For the same compound, the “ED5% (mg/kg,i.v.)” value in series [1] was more than 30 mg/kg.
Take `COc1cc(N)c(Cl)cc1C(=O)NC[C@H]1CN(CC2CCN(S(C)(=O)=O)CC2)CCO1` [Example 94]: at 5-HT4 receptor, the IC50 is 11.9 nM. In the series with Male Slc-ddy mice, the Effect result is on record as “++”. Moreover, the “ED5% (mg/kg,i.v.)” value in series [1] is recorded as more than 30 mg/kg.
As to `C=CCOC(=O)N1CCC(CN2CCO[C@@H](CNC(=O)c3cc(Cl)c(N)cc3OC)C2)CC1` [Example 100], the Effect entry in the series with Male Slc-ddy mice is listed as “++”. In addition, in series [1], the “ED5% (mg/kg,i.v.)” value was more than 30 mg/kg.
Consider `CCOc1cc(N)c(Cl)cc1C(=O)NC[C@H]1CN(CC2CCN(C(=O)c3ccc(Cl)cc3)CC2)CCO1` [Example 116], for which the IC50 on 5-HT4 receptor turned out to be 0.68 nM. In the series with Male Slc-ddy mice, the Effect entry is given as “+”. Besides, the “ED5% (mg/kg,i.v.)” value in series [1] is reported as more than 30 mg/kg.
As to `COc1cc(N)c(Cl)cc1C(=O)NC[C@H]1CN(CC2CCN(C(=O)c3cccc(C)c3)CC2)CCO1` [Example 119], the IC50 at 5-HT4 receptor is 2.05 nM. Also, in the series on Male Slc-ddy mice, the Effect entry is “+”. The “ED5% (mg/kg,i.v.)” value in series [1] is given as more than 30 mg/kg.
With `CCOc1cc(N)c(Cl)cc1C(=O)NC[C@H]1CN(CC2CCN(C(=O)c3ccc(C)cc3)CC2)CCO1` [Example 121], the 50% inhibitory concentration (IC50) at 5-HT4 receptor is 0.23 nM. Moreover, the Effect result with Male Slc-ddy mice was “++”. Further, the “ED5% (mg/kg,i.v.)” value in series [1] was more than 30 mg/kg.
The like results for `CCc1ccc(C(=O)N2CCC(CN3CCO[C@@H](CNC(=O)c4cc(Cl)c(N)cc4OC)C3)CC2)cc1` [Example 122] were, in that order, 0.87 nM, “+” and more than 30 mg/kg.
The like results for `COc1cccc(C(=O)N2CCC(CN3CCO[C@@H](CNC(=O)c4cc(Cl)c(N)cc4OC)C3)CC2)c1` [Example 124] were, in that order, 1.95 nM, “+” and more than 30 mg/kg.
As for `COc1ccc(C(=O)N2CCC(CN3CCO[C@@H](CNC(=O)c4cc(Cl)c(N)cc4OC)C3)CC2)cc1` [Example 125], the IC50 on 5-HT4 receptor is 3.51 nM. Further, the Effect entry in the series with Male Slc-ddy mice is listed as “++”. In addition, the “ED5% (mg/kg,i.v.)” value in series [1] is on record as more than 30 mg/kg.
For `COCC(=O)N1CCC(CN2CCO[C@@H](CNC(=O)c3cc(Cl)c(N)cc3OC)C2)CC1` [Example 132], the Effect result in the series on Male Slc-ddy mice was “++”. Further, the “ED5% (mg/kg,i.v.)” value in series [1] is more than 30 mg/kg.
Take `CN(C)C(=O)N1CCC(CN2CCOC(CNC(=O)c3cc(Cl)c(N)c4c3OCC4)C2)CC1` (stereo not shown) [Example 135, 4-amino-5-chloro-N-[{4-[(1-dimethylcarbamoyl-4-piperidinyl)methyl]-2-morpholinyl}methyl]-2,3-dihydrobenzo[b]furan-7-carboxamide 1.5 fumarate]: the IC50 at 5-HT4 receptor turned out to be 6.04 nM. Besides, the Effect entry in the series on Male Slc-ddy mice is recorded as “++”. For the same compound, the “ED5% (mg/kg,i.v.)” value in series [1] is listed as more than 30 mg/kg.
With `COc1cc(N)c(Cl)cc1C(=O)NC[C@H]1CN(CC2CCN(C(=O)c3ccccc3OC(C)=O)CC2)CCO1` [Example 166], the IC50 on 5-HT4 receptor is 6.93 nM. The Effect result with Male Slc-ddy mice was “++”. For the same compound, in series [1], the “ED5% (mg/kg,i.v.)” value is more than 30 mg/kg.
On the same counts, the results for `COc1cc(N)c(Cl)cc1C(=O)NC[C@H]1CN(CC2CCN(C(=O)c3ccc(OC(C)=O)cc3)CC2)CCO1` [Example 169] are 6.09 nM, “++” and more than 30 mg/kg.
On the same counts, the results for `COc1cc(N)c(Cl)cc1C(=O)NC[C@H]1CN(CC2CCN(C(=O)CO)CC2)CCO1` [Example 198, 4-amino-5-chloro-N-[{4-[(1-hydroxyacetyl-4-piperidinyl)methyl]-2-morpholinyl}methyl]-2-methoxybenzamide hydrochloride] are 25.9 nM, “++” and more than 30 mg/kg.
Turning to `COc1cc(N)c(Cl)cc1C(=O)NCC1CN(CC2CCN(C(=O)n3ccnc3)CC2)CCO1` [Example 207, (S)-4-amino-5-chloro-N-[{4-[(1-imidazolecarbonyl-4-piperidinyl)methyl]-2-morpholinyl}methyl]-2-methoxybenzamide], in the series on Male Slc-ddy mice, the Effect entry is “++”. In addition, in series [1], the “ED5% (mg/kg,i.v.)” value is more than 30 mg/kg.
Take `COc1cc(N)c(Cl)cc1C(=O)NC[C@H]1CN(CC2CCN(C(C)=O)CC2)CCO1` [Example 221]: on 5-HT4 receptor, the IC50 was determined as 45.2 nM. The Effect entry with Male Slc-ddy mice was “++”. For the same compound, the “ED5% (mg/kg,i.v.)” value in series [1] is recorded as more than 30 mg/kg.
As for `COc1cc(N)c(Cl)cc1C(=O)NC[C@H]1CN(CC2CCN(C(=O)CNC(=O)c3ccccc3)CC2)CCO1` [Example 222], the IC50 on 5-HT4 receptor stood at 17.2 nM. Besides, the Effect result in the series with Male Slc-ddy mice is “++”. In addition, in series [1], the “ED5% (mg/kg,i.v.)” value is more than 30 mg/kg.
Take `COc1cc(N)c(Cl)cc1C(=O)NC[C@H]1CN(CC2CCN(C(=O)CC#N)CC2)CCO1` [Example 223]: on 5-HT4 receptor, the IC50 stood at 18.6 nM. Also, the Effect result in the series on Male Slc-ddy mice is recorded as “++”.
As for `COCCC(=O)N1CCC(CN2CCO[C@@H](CNC(=O)c3cc(Cl)c(N)cc3OC)C2)CC1` [Example 224], the IC50 at 5-HT4 receptor was found to be 14.5 nM. Besides, the Effect result in the series with Male Slc-ddy mice is given as “++”. Besides, the “ED5% (mg/kg,i.v.)” value in series [1] is more than 30 mg/kg.
For `COc1cc(N)c(Cl)cc1C(=O)NC[C@H]1CN(CC2CCN(C(=O)[C@H](C)OC)CC2)CCO1` [Example 225], the IC50 on 5-HT4 receptor came out at 20.2 nM. Also, the Effect entry in the series with Male Slc-ddy mice is “++”. In addition, the “ED5% (mg/kg,i.v.)” value in series [1] was more than 30 mg/kg.
On to `COc1cc(N)c(Cl)cc1C(=O)NC[C@H]1CN(CC2CCN(C(=O)C3CCOC3)CC2)CCO1` (stereo partly shown) [Example 226], for which the IC50 at 5-HT4 receptor was 21.2 nM. Also, the Effect entry in the series on Male Slc-ddy mice is “++”. Further, in series [1], the “ED5% (mg/kg,i.v.)” value is on record as more than 30 mg/kg.
`COc1cc(N)c(Cl)cc1C(=O)NC[C@H]1CN(CC2CCN(C(=O)C(C)=O)CC2)CCO1` [Example 227]: the half-inhibitory concentration (IC50) at 5-HT4 receptor was 6.2 nM. In addition, the Effect result in the series with Male Slc-ddy mice is given as “++”.
As to `COc1cc(N)c(Cl)cc1C(=O)NC[C@H]1CN(CC2CCN(C(=O)c3cocn3)CC2)CCO1` [Example 228], on 5-HT4 receptor, the IC50 was determined as 13.1 nM. Moreover, in the series on Male Slc-ddy mice, the Effect result is “++”. In addition, in series [1], the “ED5% (mg/kg,i.v.)” value is given as more than 30 mg/kg.
`COc1cc(N)c(Cl)cc1C(=O)NC[C@H]1CN(CC2CCN(C(=O)c3nc[nH]n3)CC2)CCO1` [Example 229]: the IC50 at 5-HT4 receptor was determined as 18.1 nM. Moreover, the Effect entry in the series on Male Slc-ddy mice is “++”. In addition, the “ED5% (mg/kg,i.v.)” value in series [1] is more than 30 mg/kg.
As to `COc1cc(N)c(Cl)cc1C(=O)NC[C@H]1CN(CC2CCN(C(=O)c3ccc(C#N)cc3)CC2)CCO1` [Example 230], the IC50 on 5-HT4 receptor was determined as 0.64 nM. Further, the Effect entry with Male Slc-ddy mice was “++”.
For the compound `CC(=O)N1CCC(CN2CCO[C@@H](CNC(=O)c3cc(Cl)c(N)c4c3OCC4)C2)CC1` [Example 231], the IC50 at 5-HT4 receptor was 9.18 nM. In addition, in the series with Male Slc-ddy mice, the Effect entry is “++”.
For the compound `Nc1c(Cl)cc(C(=O)NC[C@H]2CN(CC3CCN(C(=O)C4CCOC4)CC3)CCO2)c2c1CCO2` (stereo partly shown) [Example 232], the IC50 at 5-HT4 receptor was found to be 7.34 nM. Further, the Effect entry with Male Slc-ddy mice was “++”.
With `Nc1c(Cl)cc(C(=O)NC[C@H]2CN(CC3CCN(C(=O)CO)CC3)CCO2)c2c1CCO2` [Example 233, (S)-4-amino-5-chloro-N-[{4-[(1-hydroxyacetyl-4-piperidinyl)methyl]-2-morpholinyl}methyl]-2,3-dihydrobenzo[b]furan-7-carboxamide], at 5-HT4 receptor, the IC50 was determined as 12.1 nM. Besides, the Effect entry with Male Slc-ddy mice is on record as “++”.
